Laboratory results taken from ChEMBL document CHEMBL1201862, “PubChem BioAssay data set” (2004).
Values belong to the molecule of their own block, whether it stands above or below them. Calls of active or inactive are those of the source.

Tests used:
[1] = target: G-protein coupled receptor 55 (Homo sapiens, UniProt Q9Y2T6); assay: blockers of GPR55 signalling, imaged – imaging, image-based, counter-screen for GPR35 antagonist project, SAR follow-up (AID 2397); assay type: functional
Escherichia coli = assay: microbe, parasite or virus in culture
Interleukin-8 [2] = target: T1, Interleukin-8 (Homo sapiens, UniProt P10145); assay: SAR analysis of GM-Tri-DAP induced IL-8 secretion in MCF-7/NOD1 cells - Set 2. [Related pubchem assays (depositor defined):AID1575, AID1578, AID2333]; assay type: functional, cell-based
T1 sequence (P10145 whole entry): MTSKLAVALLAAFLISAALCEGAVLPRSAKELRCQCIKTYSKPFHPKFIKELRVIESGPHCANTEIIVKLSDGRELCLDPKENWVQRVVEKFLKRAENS

HEK293 [3] = assay: SAR analysis of compounds that are cytotoxic to HEK293 - Set 2. [Related pubchem assays (depositor defined):AID1575, AID1578, AID1849, AID2001, AID2333, AID2334, AID2335, AID2337, AID2800]; assay type: functional, cell-based; conditions: Homo sapiens
[4] = target: T2, Nucleotide-binding oligomerization domain-containing protein 2 (Homo sapiens, UniProt Q9HC29); assay: inhibition of NOD2 signaling – set 2, SAR follow-up (AID 2475); assay type: functional
HEK293 [5] = assay: SAR analysis of compounds that are cytotoxic to HEK293 - Set 3. [Related pubchem assays (depositor defined):AID1575, AID1578, AID1848, AID1849, AID2001, AID2333, AID2334, AID2335, AID2337, AID2469]; assay type: functional, cell-based; conditions: Homo sapiens
Interleukin-8 [6] = target: T1, Interleukin-8; assay: SAR analysis of Tumor necrosis factor alpha (TNF-alpha) induced IL-8 secretion in MCF-7/NOD1 cells - Set 2. [Related pubchem assays (depositor defined):AID1575, AID2250, AID2260]; assay type: functional, cell-based
Tumor necrosis factor = Tumor necrosis factor (Homo sapiens, UniProt P01375); assay: analog potency on TNFa NF-kB signaling – cell-based, set 3, SAR follow-up (AID 2801); assay type: functional
[7] = target: T3, Nucleotide-binding oligomerization domain-containing protein 1 (Homo sapiens, UniProt Q9Y239); assay: SAR analysis of compounds that inhibit NOD1 - Set 3. [Related pubchem assays (depositor defined):AID1566, AID1575, AID1578, AID1849, AID1852, AID2333, AID2335, AID2466]; assay type: functional
T3 sequence (Q9Y239 whole entry): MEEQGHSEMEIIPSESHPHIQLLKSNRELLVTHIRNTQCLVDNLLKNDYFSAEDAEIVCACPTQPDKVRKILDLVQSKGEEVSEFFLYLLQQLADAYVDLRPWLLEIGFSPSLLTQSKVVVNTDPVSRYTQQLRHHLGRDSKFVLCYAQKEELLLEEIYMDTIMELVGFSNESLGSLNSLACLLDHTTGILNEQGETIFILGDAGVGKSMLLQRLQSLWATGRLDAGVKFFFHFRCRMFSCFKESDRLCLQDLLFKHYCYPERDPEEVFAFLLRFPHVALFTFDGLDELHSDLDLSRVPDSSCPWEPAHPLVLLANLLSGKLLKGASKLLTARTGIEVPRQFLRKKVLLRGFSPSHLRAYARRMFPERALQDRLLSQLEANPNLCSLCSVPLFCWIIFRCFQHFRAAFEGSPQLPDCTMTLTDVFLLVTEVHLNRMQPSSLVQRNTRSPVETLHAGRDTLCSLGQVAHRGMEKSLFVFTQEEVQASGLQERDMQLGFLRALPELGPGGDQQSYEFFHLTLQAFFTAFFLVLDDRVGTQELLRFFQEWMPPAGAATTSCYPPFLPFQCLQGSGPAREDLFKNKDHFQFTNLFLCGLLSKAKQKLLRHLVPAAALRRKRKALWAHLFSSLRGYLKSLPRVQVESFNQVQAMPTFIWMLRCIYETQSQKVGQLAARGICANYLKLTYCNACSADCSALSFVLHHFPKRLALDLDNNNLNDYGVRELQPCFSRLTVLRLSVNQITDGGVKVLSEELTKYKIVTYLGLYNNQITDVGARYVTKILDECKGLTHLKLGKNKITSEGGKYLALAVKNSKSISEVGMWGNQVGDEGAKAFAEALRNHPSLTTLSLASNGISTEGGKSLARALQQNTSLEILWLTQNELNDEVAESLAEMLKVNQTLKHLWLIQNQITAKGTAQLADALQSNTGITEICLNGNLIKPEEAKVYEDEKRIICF

[8] = target: T2, Nucleotide-binding oligomerization domain-containing protein 2; assay: inhibition of MDP-driven NOD2 NF-kB reporter – cell-based, set 3, SAR follow-up (AID 2799); assay type: functional
[9] = target: T3, Nucleotide-binding oligomerization domain-containing protein 1; assay: SAR analysis of NF-kappaB dependent luciferase using DAP as an inducer - Set 2. [Related pubchem assays (depositor defined):AID1566, AID1575, AID1578, AID1579, AID1849, AID1852, AID2264]; assay type: functional
[10] = target: T3, Nucleotide-binding oligomerization domain-containing protein 1; assay: SAR analysis of compounds that inhibit NOD1 - Set 2. [Related pubchem assays (depositor defined):AID1566, AID1575, AID1578, AID1849, AID1852, AID2333, AID2335, AID2798]; assay type: functional
Cytochrome P450 2D6 = Cytochrome P450 2D6 (Homo sapiens, UniProt P10635);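 note: CYP2D6 member of a cytochrome P450 panel assay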
Cytochrome P450 2C9 = Cytochrome P450 2C9 (Homo sapiens, UniProt P11712)
Cytochrome P450 3A4 = Cytochrome P450 3A4 (Homo sapiens, UniProt P08684);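 note: CYP3A4 tested as one member of a cytochrome P450 panel screen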
Cytochrome P450 2C19 = Cytochrome P450 2C19 (Homo sapiens, UniProt P33261); assay: Cytochrome panel assay with activity outcomes. Panel member name: p450-cyp2c19 Compounds with AC50 equal or less than 10 uM are considered active; assay type: functional
Cytochrome P450 1A2 = target: T4, Cytochrome P450 1A2 (Homo sapiens, UniProt P05177);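 note: PubChem cytochrome P450 panel assay, CYP1A2 panel member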
T4 sequence (P05177 whole entry): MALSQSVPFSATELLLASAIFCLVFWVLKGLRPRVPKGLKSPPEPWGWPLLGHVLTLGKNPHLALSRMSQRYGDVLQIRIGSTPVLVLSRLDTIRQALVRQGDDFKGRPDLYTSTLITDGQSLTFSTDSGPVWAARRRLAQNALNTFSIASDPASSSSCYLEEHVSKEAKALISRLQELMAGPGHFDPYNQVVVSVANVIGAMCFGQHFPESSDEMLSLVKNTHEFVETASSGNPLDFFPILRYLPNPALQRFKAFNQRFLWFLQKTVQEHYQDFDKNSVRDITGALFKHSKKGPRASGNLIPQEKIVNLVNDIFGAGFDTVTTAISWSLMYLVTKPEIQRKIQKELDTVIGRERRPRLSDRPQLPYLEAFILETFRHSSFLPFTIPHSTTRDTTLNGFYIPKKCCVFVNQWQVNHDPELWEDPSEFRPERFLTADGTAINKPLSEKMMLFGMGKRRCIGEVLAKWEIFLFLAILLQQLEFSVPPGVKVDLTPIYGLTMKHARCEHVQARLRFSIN

T2 sequence (Q9HC29 whole entry, the tested form may be a part): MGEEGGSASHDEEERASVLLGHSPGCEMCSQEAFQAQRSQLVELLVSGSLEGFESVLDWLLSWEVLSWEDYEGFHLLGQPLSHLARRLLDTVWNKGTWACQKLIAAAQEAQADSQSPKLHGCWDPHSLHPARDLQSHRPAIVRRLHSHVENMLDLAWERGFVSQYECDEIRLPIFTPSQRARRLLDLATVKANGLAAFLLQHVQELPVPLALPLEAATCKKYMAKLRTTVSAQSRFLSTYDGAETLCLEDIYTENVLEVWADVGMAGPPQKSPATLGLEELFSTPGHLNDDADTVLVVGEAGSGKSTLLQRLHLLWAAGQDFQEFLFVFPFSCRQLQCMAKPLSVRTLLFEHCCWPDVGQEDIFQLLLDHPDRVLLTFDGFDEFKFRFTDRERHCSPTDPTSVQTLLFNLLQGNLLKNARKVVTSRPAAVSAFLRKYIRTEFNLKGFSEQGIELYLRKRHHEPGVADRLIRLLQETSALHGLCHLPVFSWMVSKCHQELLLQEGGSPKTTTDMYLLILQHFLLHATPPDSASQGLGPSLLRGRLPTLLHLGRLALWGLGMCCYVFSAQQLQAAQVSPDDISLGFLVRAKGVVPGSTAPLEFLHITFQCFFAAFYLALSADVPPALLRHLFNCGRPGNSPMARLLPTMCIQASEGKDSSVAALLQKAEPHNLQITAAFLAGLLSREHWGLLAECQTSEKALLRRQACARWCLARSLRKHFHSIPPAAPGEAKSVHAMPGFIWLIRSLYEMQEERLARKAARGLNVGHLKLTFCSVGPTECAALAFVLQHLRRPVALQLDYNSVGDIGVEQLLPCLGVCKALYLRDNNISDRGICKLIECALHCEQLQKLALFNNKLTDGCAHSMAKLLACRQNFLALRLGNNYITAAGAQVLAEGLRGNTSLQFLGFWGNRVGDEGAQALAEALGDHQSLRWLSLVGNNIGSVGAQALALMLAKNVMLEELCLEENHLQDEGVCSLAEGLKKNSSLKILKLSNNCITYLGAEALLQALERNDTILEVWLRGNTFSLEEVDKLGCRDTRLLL
Chain of Cytochrome P450 3A4 (P08684 whole entry): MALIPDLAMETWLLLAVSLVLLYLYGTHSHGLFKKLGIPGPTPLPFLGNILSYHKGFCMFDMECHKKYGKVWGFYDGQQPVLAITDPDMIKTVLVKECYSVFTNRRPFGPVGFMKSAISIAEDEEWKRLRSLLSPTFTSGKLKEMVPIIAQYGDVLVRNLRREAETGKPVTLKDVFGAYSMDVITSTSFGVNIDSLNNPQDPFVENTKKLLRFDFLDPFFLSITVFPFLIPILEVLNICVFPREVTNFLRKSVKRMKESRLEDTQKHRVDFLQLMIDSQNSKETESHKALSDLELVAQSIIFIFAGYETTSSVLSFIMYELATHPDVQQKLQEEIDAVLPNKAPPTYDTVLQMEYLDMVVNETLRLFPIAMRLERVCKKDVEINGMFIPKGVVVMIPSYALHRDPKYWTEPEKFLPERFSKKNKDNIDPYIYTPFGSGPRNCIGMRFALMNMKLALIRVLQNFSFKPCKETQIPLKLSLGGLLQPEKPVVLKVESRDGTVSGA
Chain of Cytochrome P450 2C19 (P33261 whole entry): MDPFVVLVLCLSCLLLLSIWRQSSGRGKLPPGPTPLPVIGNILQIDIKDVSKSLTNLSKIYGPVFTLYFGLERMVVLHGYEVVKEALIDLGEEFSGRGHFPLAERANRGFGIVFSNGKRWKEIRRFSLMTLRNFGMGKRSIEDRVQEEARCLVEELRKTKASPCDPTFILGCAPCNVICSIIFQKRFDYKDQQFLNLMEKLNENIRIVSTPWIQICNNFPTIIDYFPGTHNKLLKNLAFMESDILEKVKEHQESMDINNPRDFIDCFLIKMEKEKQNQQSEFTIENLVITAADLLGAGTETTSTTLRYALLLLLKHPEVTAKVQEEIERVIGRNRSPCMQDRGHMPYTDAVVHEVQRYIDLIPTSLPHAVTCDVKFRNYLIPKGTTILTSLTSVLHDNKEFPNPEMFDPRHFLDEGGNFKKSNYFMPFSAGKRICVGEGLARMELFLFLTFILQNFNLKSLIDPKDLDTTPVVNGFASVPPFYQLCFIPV
Chain of Cytochrome P450 2D6 (P10635 whole entry): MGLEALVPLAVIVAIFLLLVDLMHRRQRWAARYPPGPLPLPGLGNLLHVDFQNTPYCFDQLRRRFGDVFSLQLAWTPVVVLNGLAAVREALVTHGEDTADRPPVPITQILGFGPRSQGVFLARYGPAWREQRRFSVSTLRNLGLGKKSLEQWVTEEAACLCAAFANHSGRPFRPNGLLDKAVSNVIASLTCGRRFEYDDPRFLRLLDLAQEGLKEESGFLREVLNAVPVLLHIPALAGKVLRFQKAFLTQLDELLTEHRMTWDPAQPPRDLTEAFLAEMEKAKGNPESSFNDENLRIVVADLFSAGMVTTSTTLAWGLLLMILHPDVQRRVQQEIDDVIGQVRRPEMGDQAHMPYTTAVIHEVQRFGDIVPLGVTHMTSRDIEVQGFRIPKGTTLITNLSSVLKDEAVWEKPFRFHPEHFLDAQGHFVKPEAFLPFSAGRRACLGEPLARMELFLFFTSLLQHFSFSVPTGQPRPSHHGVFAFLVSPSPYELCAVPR
Chain of G-protein coupled receptor 55 (Q9Y2T6 whole entry): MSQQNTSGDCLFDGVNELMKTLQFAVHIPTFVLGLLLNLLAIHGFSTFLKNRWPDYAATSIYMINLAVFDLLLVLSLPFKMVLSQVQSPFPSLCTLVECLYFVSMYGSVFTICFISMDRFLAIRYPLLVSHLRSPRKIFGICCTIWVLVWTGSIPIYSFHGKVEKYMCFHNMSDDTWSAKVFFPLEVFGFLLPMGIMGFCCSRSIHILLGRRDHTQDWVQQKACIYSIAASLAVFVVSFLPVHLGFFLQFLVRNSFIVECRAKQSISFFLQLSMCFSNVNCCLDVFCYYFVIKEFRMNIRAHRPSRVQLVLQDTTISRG
Chain of Cytochrome P450 2C9 (P11712 whole entry): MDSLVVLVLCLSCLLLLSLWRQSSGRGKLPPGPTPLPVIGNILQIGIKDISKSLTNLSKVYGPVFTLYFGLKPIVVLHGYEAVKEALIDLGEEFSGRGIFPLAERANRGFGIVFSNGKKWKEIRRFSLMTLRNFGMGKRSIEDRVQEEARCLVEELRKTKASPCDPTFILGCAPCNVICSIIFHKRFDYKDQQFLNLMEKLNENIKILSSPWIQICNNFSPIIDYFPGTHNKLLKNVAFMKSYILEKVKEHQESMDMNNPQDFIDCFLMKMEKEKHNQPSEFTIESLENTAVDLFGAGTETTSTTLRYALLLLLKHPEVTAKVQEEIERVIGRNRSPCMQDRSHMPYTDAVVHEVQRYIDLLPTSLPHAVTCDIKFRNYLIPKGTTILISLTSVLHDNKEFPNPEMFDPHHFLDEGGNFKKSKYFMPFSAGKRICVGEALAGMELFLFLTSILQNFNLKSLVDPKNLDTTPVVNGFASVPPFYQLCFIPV
Chain of Tumor necrosis factor (P01375 whole entry, the tested form may be a part): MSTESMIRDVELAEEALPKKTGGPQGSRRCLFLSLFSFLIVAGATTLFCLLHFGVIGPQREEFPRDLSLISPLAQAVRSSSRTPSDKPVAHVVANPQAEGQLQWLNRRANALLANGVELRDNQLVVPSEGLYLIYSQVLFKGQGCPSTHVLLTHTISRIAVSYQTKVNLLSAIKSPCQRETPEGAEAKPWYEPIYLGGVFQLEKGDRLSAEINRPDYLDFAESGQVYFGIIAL

IC50 [1]: > 32 µM (inactive)
Compound: Cc1c(C(=O)Nc2ccc3c(c2)OCCO3)sc2ncnc(O)c12

Compound: CC(=O)N1Cc2cc([N+](=O)[O-])ccc2Oc2ccccc21
AC50 (Escherichia coli): 28.5 µM (active)

Compound: COCCn1c(SCCCc2ccccc2)nc2c1c(=O)[nH]c(=O)n2C
IC50 (Interleukin-8 [2]): > 25 µM (inactive)
IC50 (HEK293 [3]): > 20 µM (inactive)
IC50 [4]: > 20 µM (inactive)
IC50 (HEK293 [5]): > 20 µM (inactive)
IC50 (Interleukin-8 [6]): > 25 µM (inactive)
IC50 (Tumor necrosis factor): > 20 µM (inactive)
IC50 [7]: > 20 µM (inactive)
IC50 [8]: > 20 µM (inactive)
IC50 [9]: > 25 µM (inactive)
IC50 [10]: > 20 µM (inactive)

Compound: Cc1ncc(CO)c(/C=N/CCCCCC/N=C/c2c(CO)cnc(C)c2[O-])c1[O-].[Mg+2]
AC50 (Cytochrome P450 2D6): inactive
AC50 (Cytochrome P450 2C9): inactive
AC50 (Cytochrome P450 3A4): inactive
AC50 (Cytochrome P450 2C19): inactive
AC50 (Cytochrome P450 1A2): inactive
